Values of other authors, collected in patent US5180725A, “Quinoxalinyl/quinoxaliy; alkyl-N-terminal amino hydroxy” (G. D. Searle & Co., priority 1991, dated 1993).
Square brackets hold non-standard residues; d marks the D form. Peptide text beside a SMILES is read from it. * marks the point of attachment. Sta = CC(C)C[C@H](N)[C@@H](O)CC(=O)O; Isovaleryl = CC(C)CC(=O)*

Test system: hog renin
Conditions: after the injection of hog renin into nephrectomized rats

For `CC(C)CC(=O)N[C@H](C(=O)N[C@H](C(=O)N[C@@H](CC(C)C)[C@@H](O)CC(=O)N[C@@H](C)C(=O)N[C@@H](CC(C)C)[C@@H](O)CC(=O)O)C(C)C)C(C)C` [pepstatin] (Isovaleryl-VV[Sta]A[Sta]-OH), the “blood pressure in vivo” value is listed as “found to reduce blood pressure in vivo”.
